Measured values: PubChem BioAssay AID256 (DTP/NCI, 2004)
“And” between values parts separate entries of the source, which are not always exact repeats. Equal values may be shown once. Inconclusive results and toxic doses are left out.

System: CD2F1 mice, L1210 leukemia ip, survival T/C
Test: NCI In Vivo Anticancer Drug Screen. Data for tumor model L1210 Leukemia (intraperitoneal) in CD2F1 (CDF1) mice
Conditions: higher = longer survival
Method in brief: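 Read-out first: treated-group measurement over vehicle-control measurement, expressed as a ratio. Animals bore a transplanted tumor line and were dosed with compound or vehicle.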

[1] = endpoint: mean survival time, dose: 100.0 mg/kg/injection, schedule: Q04DX003 (ip), vehicle: saline with Tween-80
[2] = endpoint: mean survival time, dose: 200.0 mg/kg/injection, schedule: Q04DX003 (ip), vehicle: saline with Tween-80
[3] = endpoint: mean survival time, dose: 400.0 mg/kg/injection, schedule: Q04DX003 (ip), vehicle: saline with Tween-80
[4] = endpoint: mean survival time, dose: 6.25 mg/kg/injection, schedule: Q01DX009 (ip), vehicle: saline with Tween-80
[5] = endpoint: mean survival time, dose: 12.5 mg/kg/injection, schedule: Q01DX009 (ip), vehicle: saline with Tween-80
[6] = endpoint: mean survival time, dose: 25.0 mg/kg/injection, schedule: Q01DX009 (ip), vehicle: saline with Tween-80
[7] = endpoint: mean survival time, dose: 25.0 mg/kg/injection, schedule: Q04DX003 (ip), vehicle: saline with Tween-80
[8] = endpoint: mean survival time, dose: 50.0 mg/kg/injection, schedule: Q04DX003 (ip), vehicle: saline with Tween-80
[9] = endpoint: mean survival time, dose: 75.0 mg/kg/injection, schedule: Q01DX001 (ip), vehicle: saline
[10] = endpoint: mean survival time, dose: 150.0 mg/kg/injection, schedule: Q01DX001 (ip), vehicle: saline
[11] = endpoint: mean survival time, dose: 300.0 mg/kg/injection, schedule: Q01DX001 (ip), vehicle: saline
[12] = endpoint: mean survival time, dose: 100.0 mg/kg/injection, schedule: Q01DX009 (ip), vehicle: saline with Tween-80
[13] = endpoint: mean survival time, dose: 200.0 mg/kg/injection, schedule: Q01DX009 (ip), vehicle: saline with Tween-80
[14] = endpoint: mean survival time, dose: 400.0 mg/kg/injection, schedule: Q01DX009 (ip), vehicle: saline with Tween-80
[15] = endpoint: mean survival time, dose: 100.0 mg/kg/injection, schedule: Q01DX001 (ip), vehicle: saline with Tween-80
[16] = endpoint: mean survival time, dose: 100.0 mg/kg/injection, schedule: Q04DX002 (ip), vehicle: saline with Tween-80
[17] = endpoint: mean survival time, dose: 200.0 mg/kg/injection, schedule: Q04DX002 (ip), vehicle: saline with Tween-80
[18] = endpoint: mean survival time, dose: 400.0 mg/kg/injection, schedule: Q04DX002 (ip), vehicle: saline with Tween-80
[19] = endpoint: mean survival time, dose: 100.0 mg/kg/injection, schedule: Q01DX001 (ip), vehicle: saline
[20] = endpoint: mean survival time, dose: 200.0 mg/kg/injection, schedule: Q01DX001 (ip), vehicle: saline
[21] = endpoint: mean survival time, dose: 400.0 mg/kg/injection, schedule: Q01DX001 (ip), vehicle: saline
[22] = endpoint: mean survival time, dose: 100.0 mg/kg/injection, schedule: Q04DX003 (ip), vehicle: other

## CCC1CN2C(=N1)c1ccccc1-c1cc(Cl)ccc12 (centres undefined)
endpoint: mean survival time, dose: 10.0 mg/kg/injection, schedule: Q04DX003 (ip), vehicle: Klucel (hydroxypropylcellulose) (HPC)
  T/C: 98 % of control
endpoint: mean survival time, dose: 20.0 mg/kg/injection, schedule: Q04DX003 (ip), vehicle: Klucel (hydroxypropylcellulose) (HPC)
  T/C: 103 % of control

## O=C(SC(=O)c1ccccc1)c1ccccc1
[1]
  T/C: 97 % of control
[2]
  T/C: 100 % of control
[3]
  T/C: 94 % of control

## C[N+](C)(C)/N=C\c1cccc2ccccc12
[4]
  T/C: 111 % of control
[5]
  T/C: 107 % of control
[6]
  T/C: 104 % of control

## OC(c1ccccc1)(c1ccc(-c2ccccc2)cc1)C(O)(c1ccccc1)c1ccc(-c2ccccc2)cc1 (centres undefined)
[7]
  T/C: 96 % of control
[8]
  T/C: 90 % of control
[1]
  T/C: 90 % of control and 100 % of control
[2]
  T/C: 92 % of control
[3]
  T/C: 92 % of control

## O=P(O)(O)OP(=O)(O)OCC1OC(n2cnc3c(=S)nc[nH]c32)C(O)C1O (centres undefined)
endpoint: mean survival time, dose: 200.0 mg/kg/injection, schedule: Q01DX009 (ip), vehicle: saline sonified
  T/C: 123 % of control
endpoint: mean survival time, dose: 400.0 mg/kg/injection, schedule: Q01DX009 (ip), vehicle: saline sonified
  T/C: 112 % of control

## O=C1c2ccccc2C(=O)c2c(NC3CCCCC3)ccc(Nc3ccc(S(=O)(=O)O)cc3)c21
[9]
  T/C: 100 % of control
[10]
  T/C: 100 % of control
[11]
  T/C: 103 % of control

## O=c1cc(C(F)(F)F)[nH]c2ccc(Br)cc12
endpoint: mean survival time, dose: 12.5 mg/kg/injection, schedule: Q04DX003 (ip), vehicle: saline with Tween-80
  T/C: 97 % of control
[7]
  T/C: 95 % of control
[8]
  T/C: 97 % of control

## C=CC(=O)CCCC(=O)O
[12]
  T/C: 100 % of control
[13]
  T/C: 102 % of control
[14]
  T/C: 104 % of control

## O=C(O)c1cc(N=Nc2ccc3ccccc3c2)ccc1O
[12]
  T/C: 103 % of control
[13]
  T/C: 106 % of control
[14]
  T/C: 98 % of control

## CC(C)N(C=C(C#N)C#N)C(C)C
[5]
  T/C: 91 % of control
endpoint: mean survival time, dose: 25.0 mg/kg/injection, schedule: Q01DX001 (ip), vehicle: saline with Tween-80
  T/C: 103 % of control
[6]
  T/C: 96 % of control
endpoint: mean survival time, dose: 50.0 mg/kg/injection, schedule: Q01DX001 (ip), vehicle: saline with Tween-80
  T/C: 107 % of control
[15]
  T/C: 98 % of control

## NCCC(O)C(=O)NC1CC(N)C(OC2OC(CN)C(O)C(O)C2N)C(OC2OC(CO)C(O)C2O)C1O (centres undefined)
endpoint: mean survival time, dose: 50.0 mg/kg/injection, schedule: Q04DX002 (ip), vehicle: saline with Tween-80
  T/C: 100 % of control
endpoint: mean survival time, dose: 50.0 mg/kg/injection, schedule: Q04DX002 (ip), vehicle: saline
  T/C: 98 % of control
[16]
  T/C: 100 % of control
endpoint: mean survival time, dose: 100.0 mg/kg/injection, schedule: Q04DX002 (ip), vehicle: saline
  T/C: 98 % of control
[17]
  T/C: 96 % of control
endpoint: mean survival time, dose: 200.0 mg/kg/injection, schedule: Q04DX002 (ip), vehicle: saline
  T/C: 95 % of control
[18]
  T/C: 96 % of control
endpoint: mean survival time, dose: 400.0 mg/kg/injection, schedule: Q04DX002 (ip), vehicle: saline
  T/C: 98 % of control

## CN(C(=O)CCC(=O)N(C)c1ccccc1)c1ccccc1
[15]
  T/C: 103 % of control
endpoint: mean survival time, dose: 200.0 mg/kg/injection, schedule: Q01DX001 (ip), vehicle: saline with Tween-80
  T/C: 92 % of control
endpoint: mean survival time, dose: 400.0 mg/kg/injection, schedule: Q01DX001 (ip), vehicle: saline with Tween-80
  T/C: 92 % of control

## COC(=O)c1ccccc1NCC(O)C(O)C(O)CO (centres undefined)
[19]
  T/C: 98 % of control
[20]
  T/C: 101 % of control
[21]
  T/C: 86 % of control

## NC(c1ccccc1)C(N)c1ccccc1 (centres undefined)
endpoint: mean survival time, dose: 25.0 mg/kg/injection, schedule: Q04DX003 (ip), vehicle: other
  T/C: 102 % of control
endpoint: mean survival time, dose: 50.0 mg/kg/injection, schedule: Q04DX003 (ip), vehicle: other
  T/C: 94 % of control
[22]
  T/C: 88 % of control

## OCC1OC(n2ccc3c2ncn2ncnc32)C(O)C1O (centres undefined)
endpoint: mean survival time, dose: 6.25 mg/kg/injection, schedule: Q01DX005 (ip), vehicle: water
  T/C: 114 % of control
endpoint: mean survival time, dose: 12.5 mg/kg/injection, schedule: Q01DX005 (ip), vehicle: water
  T/C: 114 % of control
endpoint: mean survival time, dose: 25.0 mg/kg/injection, schedule: Q01DX005 (ip), vehicle: water
  T/C: 117 % of control
endpoint: mean survival time, dose: 50.0 mg/kg/injection, schedule: Q01DX005 (ip), vehicle: water
  T/C: 88 % of control and 106 % of control

## CC1C2CCC(C2)C1C(=O)O (centres undefined)
[12]
  T/C: 98 % of control
[22]
  T/C: 94 % of control
[13]
  T/C: 94 % of control
endpoint: mean survival time, dose: 200.0 mg/kg/injection, schedule: Q04DX003 (ip), vehicle: other
  T/C: 87 % of control
[14]
  T/C: 86 % of control
endpoint: mean survival time, dose: 400.0 mg/kg/injection, schedule: Q04DX003 (ip), vehicle: other
  T/C: 90 % of control

## Nc1ncn(C2OC(COC(=O)c3ccccc3)C(OC(=O)c3ccccc3)C2OC(=O)c2ccccc2)c(=O)n1 (centres undefined)
endpoint: mean survival time, dose: 1.56 mg/kg/injection, schedule: Q01DX009 (ip), vehicle: saline
  T/C: 108 % of control
endpoint: mean survival time, dose: 6.25 mg/kg/injection, schedule: Q01DX009 (ip), vehicle: saline
  T/C: 164 % of control and 170 % of control
endpoint: mean survival time, dose: 12.5 mg/kg/injection, schedule: Q01DX009 (ip), vehicle: saline
  T/C: 205 % of control and 227 % of control
endpoint: mean survival time, dose: 25.0 mg/kg/injection, schedule: Q01DX009 (ip), vehicle: saline
  T/C: 115 % of control and 124 % of control
endpoint: mean survival time, dose: 50.0 mg/kg/injection, schedule: Q01DX009 (ip), vehicle: saline
  T/C: 91 % of control and 93 % of control

## Cc1ccc(NC(=O)c2ccccc2Cl)c(C)c1
[12]
  T/C: 110 % of control
[1]
  T/C: 104 % of control
[13]
  T/C: 93 % of control
[2]
  T/C: 101 % of control
[14]
  T/C: 98 % of control
[3]
  T/C: 97 % of control

## COc1nc(NC2OC(CO)C(O)C(O)C2O)c(I)c(=O)n1C (centres undefined)
endpoint: median survival time, dose: 12.5 mg/kg/injection, schedule: Q01DX005 (ip), vehicle: saline with Tween-80
  T/C: 100 % of control
endpoint: median survival time, dose: 25.0 mg/kg/injection, schedule: Q01DX005 (ip), vehicle: saline with Tween-80
  T/C: 100 % of control
endpoint: median survival time, dose: 50.0 mg/kg/injection, schedule: Q01DX005 (ip), vehicle: saline with Tween-80
  T/C: 100 % of control
endpoint: median survival time, dose: 100.0 mg/kg/injection, schedule: Q01DX005 (ip), vehicle: saline with Tween-80
  T/C: 100 % of control
endpoint: median survival time, dose: 200.0 mg/kg/injection, schedule: Q01DX005 (ip), vehicle: saline with Tween-80
  T/C: 101 % of control

## CC1=C(N=[N+]=[N-])C(=O)c2ccccc2C1=O
[16]
  T/C: 91 % of control
[17]
  T/C: 100 % of control

## COC(=O)C1C(C(=O)OC)C2(C)C(=O)C1(C)C(c1ccccc1)=C2c1ccccc1 (centres undefined)
[16]
  T/C: 101 % of control
[17]
  T/C: 90 % of control
[18]
  T/C: 90 % of control

## CC(=O)Nc1nnc([N+](=O)[O-])s1
[1]
  T/C: 95 % of control
[2]
  T/C: 91 % of control
[3]
  T/C: 94 % of control

## CC(=O)OC1CC(C)CCC1C(C)C (centres undefined)
[1]
  T/C: 113 % of control
[2]
  T/C: 106 % of control

## COC(=O)C(NC(=O)Cc1ccccc1)C(C)(C)S (centres undefined)
[16]
  T/C: 102 % of control
[17]
  T/C: 102 % of control
[18]
  T/C: 102 % of control

## NNc1n[nH]c(=S)n1N
[4]
  T/C: 103 % of control
[5]
  T/C: 102 % of control
[6]
  T/C: 104 % of control and 107 % of control

## CNC(=O)/C=C/C1=CN2C(=O)c3ccc(C)c(O)c3NC(OC)C2C1 (centres undefined)
endpoint: mean survival time, dose: 0.01 mg/kg/injection, schedule: Q01DX009 (ip), vehicle: saline
  T/C: 105 % of control and 108 % of control
endpoint: mean survival time, dose: 0.02 mg/kg/injection, schedule: Q01DX009 (ip), vehicle: saline
  T/C: 95 % of control
endpoint: mean survival time, dose: 0.03 mg/kg/injection, schedule: Q01DX009 (ip), vehicle: saline
  T/C: 112 % of control
endpoint: mean survival time, dose: 0.05 mg/kg/injection, schedule: Q01DX009 (ip), vehicle: saline
  T/C: 100 % of control and 106 % of control and 108 % of control
endpoint: mean survival time, dose: 0.1 mg/kg/injection, schedule: Q01DX009 (ip), vehicle: saline
  T/C: 115 % of control and 102 % of control and 106 % of control
endpoint: mean survival time, dose: 0.2 mg/kg/injection, schedule: Q01DX009 (ip), vehicle: saline
  T/C: 115 % of control and 100 % of control
endpoint: mean survival time, dose: 0.4 mg/kg/injection, schedule: Q01DX009 (ip), vehicle: saline
  T/C: 112 % of control

## OCC(O)C(O)C(O)C(/C=N/Nc1ccccc1)=N\Nc1ccccc1 (centres undefined)
[9]
  T/C: 95 % of control
[10]
  T/C: 100 % of control
[11]
  T/C: 97 % of control

## COC(=O)NCCNC(=O)OC
[19]
  T/C: 98 % of control
[20]
  T/C: 98 % of control
[21]
  T/C: 101 % of control
